Tests used:
Format in all cases: biochemical
Conditions in all cases: continuous assay 60 min, reaction initiated by adding enzyme to substrate-inhibitor mixture
MCH-2 = molecular target: T1, MCH-2 (Homo sapiens, UniProt P55212); experiment: Dissociation constant Ki and irreversible rate constant k3 for irreversible inhibitors (Mch2)
T1 sequence (P55212 24-179 limits assumed): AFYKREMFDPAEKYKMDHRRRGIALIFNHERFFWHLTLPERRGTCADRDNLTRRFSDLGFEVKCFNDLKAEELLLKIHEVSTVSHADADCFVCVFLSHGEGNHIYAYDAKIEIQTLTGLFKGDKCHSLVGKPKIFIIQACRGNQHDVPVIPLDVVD
T1 sequence (P55212 194-293 limits assumed): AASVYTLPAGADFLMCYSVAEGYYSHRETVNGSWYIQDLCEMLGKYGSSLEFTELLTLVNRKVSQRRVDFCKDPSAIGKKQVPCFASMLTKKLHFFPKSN

mICE = molecular target: T2, mICE (Mus musculus, UniProt P29452); experiment: Dissociation constant Ki and irreversible rate constant k3 for irreversible inhibitors (ICE)
T2 sequence (P29452 123-296 limits assumed): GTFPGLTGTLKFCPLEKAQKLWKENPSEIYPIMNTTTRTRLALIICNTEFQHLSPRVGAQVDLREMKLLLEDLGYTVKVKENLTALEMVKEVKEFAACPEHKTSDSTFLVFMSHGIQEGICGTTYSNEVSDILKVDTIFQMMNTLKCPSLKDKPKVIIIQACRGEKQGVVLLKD
T2 sequence (P29452 315-402 limits assumed): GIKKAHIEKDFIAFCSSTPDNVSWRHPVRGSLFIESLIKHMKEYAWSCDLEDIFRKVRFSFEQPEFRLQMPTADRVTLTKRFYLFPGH

MCH-5 = MCH-5 (Homo sapiens, UniProt Q14790); experiment: Dissociation constant Ki and irreversible rate constant k3 for irreversible inhibitors (Mch5)
CPP32 = molecular target: T3, CPP32 (Homo sapiens, UniProt P42574); experiment: Dissociation constant Ki and irreversible rate constant k3 for irreversible inhibitors (CPP32)
T3 sequence (P42574 29-175 limits assumed): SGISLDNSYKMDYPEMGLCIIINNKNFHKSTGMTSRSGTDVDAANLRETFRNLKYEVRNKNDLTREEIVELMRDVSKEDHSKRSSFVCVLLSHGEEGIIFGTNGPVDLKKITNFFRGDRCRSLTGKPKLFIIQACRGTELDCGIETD
T3 sequence (P42574 176-277 limits assumed): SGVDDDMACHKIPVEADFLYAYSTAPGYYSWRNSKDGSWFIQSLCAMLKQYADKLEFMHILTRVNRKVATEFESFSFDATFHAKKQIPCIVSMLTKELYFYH

Sequence of MCH-5 (Q14790 217-374 limits assumed, species assumed): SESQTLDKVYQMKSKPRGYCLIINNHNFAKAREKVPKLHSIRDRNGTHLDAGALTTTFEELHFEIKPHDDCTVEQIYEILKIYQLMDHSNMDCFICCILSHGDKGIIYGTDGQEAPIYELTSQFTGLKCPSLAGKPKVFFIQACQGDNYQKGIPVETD
Sequence of MCH-5 (Q14790 385-479 limits assumed, species assumed): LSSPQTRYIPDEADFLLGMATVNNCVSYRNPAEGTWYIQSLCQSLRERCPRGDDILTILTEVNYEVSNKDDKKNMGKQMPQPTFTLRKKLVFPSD

SMILES | Ki (MCH-2) | MCH-2 k3/Ki (MCH-2) | Ki (mICE) | mICE k3/Ki (mICE) | Ki (MCH-5) | MCH-5 k3/Ki (MCH-5) | CPP32 k3/Ki (CPP32) | Ki (CPP32)
C[C@H](NC(=O)C(=O)Nc1ccccc1-c1ccccc1)C(=O)N[C@@H](CC(=O)O)C(=O)COC(=O)c1c(Cl)cccc1Cl [Example 29] | 0.009 µM | 219,000 moles^−1 seconds^−1 | 0.038 µM | 259,000 moles^−1 seconds^−1 | 0.017 µM | 125,000 moles^−1 seconds^−1 | 388,000 moles^−1 seconds^−1 | 0.015 µM
C[C@H](NC(=O)C(=O)NCc1cccc2ccccc12)C(=O)N[C@@H](CC(=O)O)C(=O)COP(=O)(c1ccccc1)c1ccccc1 [Example 35] | 0.011 µM | 186,000 moles^−1 seconds^−1 | 0.035 µM | 191,000 moles^−1 seconds^−1 | 0.023 µM | 82,700 moles^−1 seconds^−1 | 245,000 moles^−1 seconds^−1 | 0.022 µM
CC(C)[C@H](NC(=O)C(=O)Nc1cccc2ccccc12)C(=O)N[C@@H](CC(=O)O)C(=O)COc1ccnc(C(F)(F)F)n1 [Example 12] | 0.095 µM |  | 0.0072 µM |  | 0.012 µM |  |  | 0.064 µM
C[C@H](NC(=O)C(=O)NCc1ccccc1)C(=O)N[C@@H](CC(=O)O)C(=O)COc1c(F)c(F)cc(F)c1F [Example 51] | 0.07 µM | 42,800 moles^−1 seconds^−1 | 1.01 µM | 13,900 moles^−1 seconds^−1 | 0.083 µM | 23,100 moles^−1 seconds^−1 | 54,300 moles^−1 seconds^−1 | 0.37 µM
CC(C)[C@H](NC(=O)C(=O)Nc1cccc2ccccc12)C(=O)N[C@@H](CC(=O)O)C(=O)COP(=O)(c1ccccc1)c1ccccc1 [Example 11] | 0.011 µM |  | 0.005 µM |  | 0.0013 µM |  |  | 0.025 µM
C[C@H](NC(=O)C(=O)Nc1cc(C(C)(C)C)ccc1C(C)(C)C)C(=O)N[C@@H](CC(=O)O)C(=O)COc1c(F)c(F)cc(F)c1F [Example 40] | 0.015 µM | 192,000 moles^−1 seconds^−1 | 0.045 µM | 195,000 moles^−1 seconds^−1 | 0.01 µM | 248,000 moles^−1 seconds^−1 | 221,000 moles^−1 seconds^−1 | 0.063 µM
CC(C)[C@H](NC(=O)C(=O)Nc1ccccc1C(C)(C)C)C(=O)N[C@@H](CC(=O)O)C(=O)COc1c(F)c(F)cc(F)c1F [Example 93] | 0.041 µM | 112,000 moles^−1 seconds^−1 | 0.006 µM | 2,052,000 moles^−1 seconds^−1 | 0.003 µM | 1,165,000 moles^−1 seconds^−1 | 27,700 moles^−1 seconds^−1 | 0.353 µM
CC(C)[C@H](NC(=O)C(=O)Nc1ccc(F)cc1)C(=O)N[C@@H](CC(=O)O)C(=O)COc1c(F)c(F)cc(F)c1F [Example 91] | 0.059 µM | 121,000 moles^−1 seconds^−1 | 0.016 µM | 906,000 moles^−1 seconds^−1 | 0.015 µM | 338,000 moles^−1 seconds^−1 | 36,300 moles^−1 seconds^−1 | 0.758 µM
C[C@H](NC(=O)C(=O)Nc1ccccc1F)C(=O)N[C@@H](CC(=O)O)C(=O)COC(=O)c1c(Cl)cccc1Cl [Example 39] | 0.023 µM | 129,000 moles^−1 seconds^−1 | 0.116 µM | 172,000 moles^−1 seconds^−1 | 0.04 µM | 155,000 moles^−1 seconds^−1 | 68,900 moles^−1 seconds^−1 | 0.202 µM
C[C@H](NC(=O)C(=O)Nc1ccccc1Cl)C(=O)N[C@@H](CC(=O)O)C(=O)COC(=O)c1c(Cl)cccc1Cl [Example 42] | 0.007 µM | 745,000 moles^−1 seconds^−1 | 0.007 µM | 1,940,000 moles^−1 seconds^−1 | 0.0046 µM | 1,630,000 moles^−1 seconds^−1 | 842,000 moles^−1 seconds^−1 | 0.021 µM
CC(C)[C@H](NC(=O)C(=O)Nc1cccc2ccccc12)C(=O)N[C@@H](CC(=O)O)C(=O)COc1c(F)cccc1F [Example 5] | 0.025 µM |  | 0.0074 µM |  | 0.005 µM |  |  | 0.041 µM
CC(C)[C@H](NC(=O)C(=O)Nc1ccccc1)C(=O)N[C@@H](CC(=O)O)C(=O)COc1c(F)c(F)cc(F)c1F [Example 82] | 0.1 µM | 25,500 moles^−1 seconds^−1 | 0.007 µM | 1,490,000 moles^−1 seconds^−1 | 0.005 µM | 598,000 moles^−1 seconds^−1 | 36,000 moles^−1 seconds^−1 | 0.389 µM
CC(C)[C@H](NC(=O)C(=O)NC12CC3CC(CC(C3)C1)C2)C(=O)N[C@@H](CC(=O)O)C(=O)COc1c(F)c(F)cc(F)c1F [Example 89] | 0.152 µM | 10,700 moles^−1 seconds^−1 | 0.052 µM | 184,000 moles^−1 seconds^−1 | 0.04 µM | 59,900 moles^−1 seconds^−1 | 6,330 moles^−1 seconds^−1 | 1.51 µM
CC(C)[C@H](NC(=O)C(=O)Nc1c(F)c(F)nc(F)c1F)C(=O)N[C@@H](CC(=O)O)C(=O)COc1c(F)c(F)cc(F)c1F [Example 102] | 0.022 µM | 170,000 moles^−1 seconds^−1 | 0.014 µM | 1,220,000 moles^−1 seconds^−1 | 0.01 µM | 389,000 moles^−1 seconds^−1 | 153,000 moles^−1 seconds^−1 | 0.127 µM
C[C@H](NC(=O)C(=O)Nc1ccccc1I)C(=O)N[C@@H](CC(=O)O)C(=O)COC(=O)c1c(Cl)cccc1Cl [Example 75] | 0.034 µM | 28,200 moles^−1 seconds^−1 | 0.013 µM | 1,270,000 moles^−1 seconds^−1 | 0.004 µM | 551,000 moles^−1 seconds^−1 | 67,600 moles^−1 seconds^−1 | 0.105 µM
CC(C)[C@H](NC(=O)C(=O)Nc1ccccc1Cc1ccccc1)C(=O)N[C@@H](CC(=O)O)C(=O)COc1c(F)c(F)cc(F)c1F [Example 84] | 0.082 µM | 25,300 moles^−1 seconds^−1 | 0.043 µM | 344,000 moles^−1 seconds^−1 | 0.024 µM | 105,000 moles^−1 seconds^−1 | 54,800 moles^−1 seconds^−1 | 0.367 µM
CC(C)[C@H](NC(=O)C(=O)Nc1cc(C(C)(C)C)ccc1C(C)(C)C)C(=O)N[C@@H](CC(=O)O)C(=O)COc1c(F)c(F)cc(F)c1F [Example 109] | 0.232 µM | 8,230 moles^−1 seconds^−1 | 0.025 µM | 767,000 moles^−1 seconds^−1 | 0.034 µM | 51,300 moles^−1 seconds^−1 | 70,600 moles^−1 seconds^−1 | 0.193 µM
C[C@H](NC(=O)C(=O)Nc1cc(C(C)(C)C)ccc1C(C)(C)C)C(=O)N[C@@H](CC(=O)O)C(=O)COP(=O)(c1ccccc1)c1ccccc1 [Example 59] | 0.015 µM | 308,000 moles^−1 seconds^−1 | 0.045 µM | 211,000 moles^−1 seconds^−1 | 0.0055 µM | 1,340,000 moles^−1 seconds^−1 | 104,000 moles^−1 seconds^−1 | 0.071 µM
CC(C)[C@H](NC(=O)C(=O)Nc1cccc2ccccc12)C(=O)N[C@@H](CC(=O)O)C(=O)COc1c(-c2ccccc2)oc2ccccc2c1=O [Example 9] | 0.336 µM |  | 0.128 µM | 82,100 moles^−1 seconds^−1 | 0.453 µM | 0 mol⁻¹ s⁻¹ | 43,600 moles^−1 seconds^−1 | 0.059 µM
COC(=O)c1cc(OCC(=O)[C@H](CC(=O)O)NC(=O)[C@@H](NC(=O)C(=O)Nc2cccc3ccccc23)C(C)C)no1 [Example 13] | 0.096 µM |  | 0.024 µM |  | 0.023 µM |  |  | 0.067 µM
C[C@H](NC(=O)C(=O)Nc1ccccc1I)C(=O)N[C@@H](CC(=O)O)C(=O)COP(=O)(c1ccccc1)c1ccccc1 [Example 74] | 0.078 µM | 66,200 moles^−1 seconds^−1 | 0.303 µM | 36,300 moles^−1 seconds^−1 | 0.07 µM | 46,300 moles^−1 seconds^−1 | 78,300 moles^−1 seconds^−1 | 0.161 µM
C[C@H](NC(=O)C(=O)Nc1ccccc1I)C(=O)N[C@@H](CC(=O)O)C(=O)COC(=O)c1c(Cl)cccc1Cl [Example 38] | 0.006 µM | 360,000 moles^−1 seconds^−1 | 0.152 µM | 90,100 moles^−1 seconds^−1 | 0.006 µM | 337,000 moles^−1 seconds^−1 | 942,000 moles^−1 seconds^−1 | 0.013 µM

Source: patent US7183260B2, “C-terminal modified oxamyl dipeptides as inhibitors of the ICE/ced-3 family of cysteine proteases” (Idun Pharmaceuticals, Inc., priority 1998, dated 2007)
